The values below come from patent US20220193076A1, “METHODS OF TREATING BREAST CANCER WITH TUCATINIB” (Seagen Inc., priority 2019, published 2022).

Read-outs that look alike come from different tables or passages of the source.

Data set [1] in a line: Clinical plasma concentration of tucatinib. Conditions: human, read-out: Mean clinical maximum observed concentration (Cmax). Type of data set: in vivo.
Data set [2] is described as follows: Example 2 Part D: single- and multiple-dose PK of tucatinib and ONT-993. Type of data set: in vivo, human. Conditions: tucatinib 300 mg BID, Day 10 vs Day 4. From the text:
Other noncompartmental PK parameters may be reported.

The test system of a further data set is CYP3A4/5. In words: Cytochrome P450 3A4/5 inhibition in human liver microsomes (Example 4). The conditions noted are these: both sexes, pooled human liver microsomes. Type of data set: in vitro ADME. The protocol: This in vitro study was designed to evaluate the ability of tucatinib to inhibit the major CYP enzyme CYP3A4/5 in human liver microsomes (using two different substrates) with the aim of ascertaining the potential of tucatinib to inhibit the metabolism of concomitantly administered drugs. The inhibitory potency of tucatinib was determined in vitro by measuring the activity of CYP3A4/5 in human liver microsomes in the presence and absence of tucatinib. […] Metabolism-dependent inhibition was further evaluated to determine how quickly (kinact value) and to what extent (Ki value) tucatinib inactivates CYP3A4/5.
Human liver microsomes from non-transplantable, donated livers were prepared and characterized. A mixed-gender pool of 200 individual human liver microsomal samples was used for this study (Sekisui XenoTech catalog number: H2620, lot number: 1210347).
To measure CYP activity, incubations were conducted at approximately 37° C. in 200 μL incubation mixtures (pH 7.4) containing water, potassium phosphate buffer (50 mM), MgCl2 (3 mM), EDTA (1 mM), an NADPH-regenerating system (always the mixture of the following: NADP [1 mM], glucose 6 phosphate [5 mM], glucose 6 phosphate dehydrogenase [1 Unit/mL]), and marker substrate at the final concentrations indicated.
Aliquots of the stock and/or working solutions of tucatinib were manually added to buffer mixtures described above. Incubation mixtures were prepared in bulk to obviate the need for directly pipetting very small volumes (i.e., 1 μL or less). Incubations containing no tucatinib (0 μM; Solvent Control) contained the solvent used to dissolve tucatinib (i.e., DMSO).
The Tecan liquid handling system conducted all remaining steps for the IC50 and Kl/kinact determinations, with the exception of the centrifugation. For these assays, duplicate aliquots of the buffer mixtures were automatically added to 96-well plates at the appropriate locations. Aliquots of a substrate working solution were added to the 96-well plates prior to initiating reactions. Marker substrate reactions were initiated by the addition of an aliquot of an NADPH-regenerating system and were automatically terminated at approximately 5 min by the addition of the appropriate internal standard and stop reagent, acetonitrile. The samples were centrifuged at 920×g for 10 min at 10° C. The supernatant fractions were analyzed by LC-MS/MS. Standards were similarly prepared with the addition of authentic metabolite standards.
Due to the possibility that tucatinib may bind to microsomal protein or lipids, an attempt was made to design these experiments such that, in as many cases as possible, the microsomal protein, incubation time and buffer concentration were 0.1 mg/mL, 5 min and 50 mM, respectively.
To examine its ability to act as a direct inhibitor of enzymes, tucatinib (at concentrations ranging from 0.01 to 10 μM) was incubated with marker substrate and human liver microsomes. The concentrations of marker substrates were based on the Km or S50 data that were determined previously.
To examine its ability to act as a metabolism-dependent inhibitor of CYP3A4/5 enzymes, tucatinib (at the same concentrations used to evaluate direct inhibition) was preincubated at 37±2° C., in duplicate, with human liver microsomes and an NADPH-regenerating system for approximately 30 min. This preincubation allowed for the generation of intermediates that could inhibit human CYP3A4/5 activity. The preincubations were initiated by the addition of an aliquot of an NADPH-regenerating system. To examine its ability to act as a time-dependent inhibitor of CYP3A4/5 enzymes, additional duplicate samples at all tucatinib concentrations were preincubated for 30 min in the presence of pooled human liver microsomes, but in the absence of NADPH. This preincubation allowed assessment of whether any potential increase in inhibition was dependent upon NADPH (e.g., potentially CYP-mediated). […]

The subject of a further data set is CYP3A4 and CYP2C8. Description: Example 2 Part B: effect of inducer rifampin on PK of tucatinib. Conditions: tucatinib 300 mg single dose in combination with rifampin vs tucatinib alone. Type of data set: in vivo, human. As for the experimental part: They were discharged on Day 12 after completion of the in-patient assessments. […] On Day 3 through Day 11, each subject received single oral doses of 600 mg of rifampin once daily (QD). On Day 10, each subject received a single oral dose of 300 mg of tucatinib. […] Other noncompartmental PK parameters may be reported. Additionally, blood samples were collected for determination of trough levels of rifampin prior to morning dosing on the days indicated in FIG. 6.

The next data set addresses P-glycoprotein (P-gp) (Homo sapiens, UniProt P08183). In words: P-gp substrate assessment and inhibition of P-gp-mediated efflux of digoxin. In kind it is in vitro ADME.
Data set [3] has as its target CYP3A4 (Homo sapiens, UniProt P08684). In words: Example 2 Part A: effect of strong CYP3A4 inhibitor itraconazole on PK of tucatinib. In kind it is in vivo. Further details: endogenous in cells; host or cells: healthy human subjects, in vivo. Conditions: tucatinib 300 mg single dose in combination with itraconazole vs tucatinib alone. As for the experimental part:
A primary objective of the study is to assess the effect of a strong CYP3A4 inhibitor (itraconazole) on the single-dose PK of tucatinib. […] They were discharged on Day 8 after completion of the in-patient assessments. […] On Day 3, each subject received oral doses of 200 mg of itraconazole, twice daily (BID). From Day 4 to Day 7, each subject received single oral doses of 200 mg of itraconazole once daily (QD). Itraconazole was administered in the fed state (within 5 minutes after completion of meals). On Day 6, each subject received a single oral dose of 300 mg of tucatinib at about 2 hours after the completion of breakfast and after itraconazole in the morning. […] Other noncompartmental PK parameters may be reported. Additionally, blood samples were collected for determination of trough levels of itraconazole prior to morning dosing on the days indicated in FIG. 5.

For data set [4], the system named is CYP3A4. Description: In vitro enzyme activity / mRNA induction in human hepatocytes. Type of data set: in vitro ADME.

CYP3A4 (Homo sapiens, UniProt P08684), sequence (P08684 whole entry): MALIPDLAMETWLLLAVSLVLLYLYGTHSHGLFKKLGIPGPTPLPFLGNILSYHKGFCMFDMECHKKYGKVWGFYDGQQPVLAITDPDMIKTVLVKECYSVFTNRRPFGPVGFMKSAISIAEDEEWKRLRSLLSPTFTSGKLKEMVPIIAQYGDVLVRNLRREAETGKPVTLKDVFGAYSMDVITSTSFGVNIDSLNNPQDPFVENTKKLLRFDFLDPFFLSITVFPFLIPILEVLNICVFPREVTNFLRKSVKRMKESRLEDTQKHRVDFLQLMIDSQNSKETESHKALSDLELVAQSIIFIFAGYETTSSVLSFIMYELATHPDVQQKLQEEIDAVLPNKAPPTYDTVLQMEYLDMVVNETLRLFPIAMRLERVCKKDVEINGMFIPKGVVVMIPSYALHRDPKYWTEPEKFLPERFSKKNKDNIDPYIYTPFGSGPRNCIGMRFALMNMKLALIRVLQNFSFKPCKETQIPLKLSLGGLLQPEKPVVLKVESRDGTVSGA
P-glycoprotein (P-gp), sequence (P08183 whole entry): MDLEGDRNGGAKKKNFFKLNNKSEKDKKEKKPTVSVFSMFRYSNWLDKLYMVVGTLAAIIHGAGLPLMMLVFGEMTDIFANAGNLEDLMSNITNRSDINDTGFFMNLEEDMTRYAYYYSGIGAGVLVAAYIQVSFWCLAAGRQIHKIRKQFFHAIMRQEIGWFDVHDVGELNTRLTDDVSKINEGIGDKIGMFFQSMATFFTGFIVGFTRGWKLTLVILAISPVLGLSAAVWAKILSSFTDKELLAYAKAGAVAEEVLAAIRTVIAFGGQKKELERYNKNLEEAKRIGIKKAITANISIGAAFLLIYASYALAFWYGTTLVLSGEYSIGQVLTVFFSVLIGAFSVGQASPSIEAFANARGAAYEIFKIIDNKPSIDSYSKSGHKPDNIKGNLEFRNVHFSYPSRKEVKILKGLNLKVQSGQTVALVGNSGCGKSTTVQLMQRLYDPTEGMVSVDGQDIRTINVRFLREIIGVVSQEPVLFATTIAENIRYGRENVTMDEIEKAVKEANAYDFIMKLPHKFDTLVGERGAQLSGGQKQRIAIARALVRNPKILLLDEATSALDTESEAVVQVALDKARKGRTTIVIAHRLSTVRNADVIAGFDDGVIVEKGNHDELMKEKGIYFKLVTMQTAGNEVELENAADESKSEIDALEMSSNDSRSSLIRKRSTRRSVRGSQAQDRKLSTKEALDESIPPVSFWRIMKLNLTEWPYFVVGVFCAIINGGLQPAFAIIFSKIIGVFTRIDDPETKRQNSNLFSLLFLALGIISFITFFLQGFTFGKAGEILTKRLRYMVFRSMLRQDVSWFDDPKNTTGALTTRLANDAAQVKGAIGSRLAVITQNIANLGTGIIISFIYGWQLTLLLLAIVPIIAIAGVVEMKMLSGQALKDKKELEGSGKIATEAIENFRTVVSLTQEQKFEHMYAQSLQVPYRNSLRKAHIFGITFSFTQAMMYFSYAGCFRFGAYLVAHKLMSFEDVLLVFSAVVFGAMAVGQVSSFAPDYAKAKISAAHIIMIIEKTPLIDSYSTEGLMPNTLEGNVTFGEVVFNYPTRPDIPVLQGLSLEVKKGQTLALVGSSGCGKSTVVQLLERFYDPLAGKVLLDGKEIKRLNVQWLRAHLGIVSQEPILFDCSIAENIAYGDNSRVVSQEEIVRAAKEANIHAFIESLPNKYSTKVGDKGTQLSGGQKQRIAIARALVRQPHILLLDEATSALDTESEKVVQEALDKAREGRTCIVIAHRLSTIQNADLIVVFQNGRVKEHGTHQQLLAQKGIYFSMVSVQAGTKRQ

For `Cc1cc(Nc2ncnc3ccc(NC4=NC(C)(C)CO4)cc23)ccc1Oc1ccn2ncnc2c1` [tucatinib], the Cmax in data set [1] was 1000 to 2000 nM. In data set [2], the “Rac (accumulation ratio) after multiple dosing” value was determined as 1.85. Besides, the kinact/KI with CYP3A4/5 (human, pH 7.4, probe midazolam (1′-hydroxylation), midazolam 1′-hydroxylation, read-out: Efficiency of inactivation (kinact/KI) (converted)) was 350 M⁻¹ s⁻¹. For the same compound, the IC50 at 5 min with CYP3A4/5 (human, pH 7.4, probe midazolam (1′-hydroxylation), read-out: IC50, direct inhibition of CYP3A4/5-mediated midazolam 1′-hydroxylation) is 3.3 µM. In addition, the KI (inactivation) in the data set with CYP3A4/5 (human, pH 7.4, probe midazolam (1′-hydroxylation), read-out: KI, inactivation of CYP3A4/5-mediated midazolam 1′-hydroxylation, mean±SE) was found to be 0.54 ± 0.25 µM. The kinact with CYP3A4/5 (human, pH 7.4, probe midazolam (1′-hydroxylation), read-out: kinact, inactivation of CYP3A4/5-mediated midazolam 1′-hydroxylation, mean±SE (converted)) was 0.000183 s⁻¹. Besides, the IC50 at 5 min with CYP3A4/5 (human, pH 7.4, probe testosterone (6β-hydroxylation), read-out: IC50, direct inhibition of CYP3A4/5-mediated testosterone 6p-hydroxylation) was more than 10 µM. Moreover, the inhibition at 5 min in the data set on CYP3A4/5 (pH 7.4, probe testosterone (6β-hydroxylation), human liver microsomes, up to 10 μM, read-out: Maximum direct inhibition of CYP3A4/5-mediated testosterone 6p-hydroxylation) amounted to 44%. Also, in the data set on CYP3A4 and CYP2C8, the “Geometric LS mean ratio (90% CI), AUC0-∞” value is listed as 0.520 (0.452, 0.597); the “Geometric LS mean ratio (90% CI), AUClast” value is 0.517 (0.449, 0.596); the “Geometric LS mean ratio (90% CI), Cmax” value is listed as 0.632 (0.531, 0.753). Further, on P-glycoprotein (P-gp), the IC50 was 10 to 30 µM and the P-gp substrate status result is reported as “P-glycoprotein (P-gp) substrate”. Besides, at CYP3A4 [3], the “Geometric LS mean ratio (90% CI), AUC0-∞” value is 1.34 (1.26, 1.43); the “Geometric LS mean ratio (90% CI), AUClast” value was 1.33 (1.25, 1.41); the “Geometric LS mean ratio (90% CI), Cmax” value is 1.32 (1.23, 1.42). In addition, the “Induction of in vitro enzyme activity or messenger ribonucleic acid, CYP3A4” value in the data set on CYP3A4 [4] was “did not induce”.
